Data taken from PubChem BioAssay (NCI).
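In this assay, cells in 96-well plates receive the compound at five concentrations for 48 hours. Endpoints are linearly interpolated between the surrounding concentrations. GI50: concentration for 50% inhibition of growth. At the TGI there is no net growth.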

Assays:
Assay in all cases: NCI tumour cell line growth inhibition, 48 h
[1] = tested on: 786-0 renal
[2] = tested on: A498 renal
[3] = tested on: A549 NSCLC
[4] = tested on: ACHN renal
[5] = tested on: BT-549 breast
[6] = tested on: CAKI-1 renal
[7] = tested on: CCRF-CEM leukemia
[8] = tested on: COLO 205 colon
[9] = tested on: DU-145 prostate
[10] = tested on: EKVX NSCLC
[11] = tested on: HCC-2998 colon
[12] = tested on: HCT-116 colon
[13] = tested on: HCT-15 colon
[14] = tested on: HL-60(TB) leukemia
[15] = tested on: HOP-62 NSCLC
[16] = tested on: HOP-92 NSCLC
[17] = tested on: HS 578T breast
[18] = tested on: HT29 colon
[19] = tested on: IGROV1 ovarian
[20] = tested on: K-562 leukemia
[21] = tested on: KM12 colon
[22] = tested on: LOX IMVI melanoma
[23] = tested on: M14 melanoma
[24] = tested on: MALME-3M melanoma
[25] = tested on: MCF7 breast
[26] = tested on: MDA-MB-231 breast
[27] = tested on: MDA-MB-435
[28] = tested on: MOLT-4 leukemia
[29] = tested on: NCI-H226 lung
[30] = tested on: NCI-H23 lung
[31] = tested on: NCI-H460 lung
[32] = tested on: NCI-H522 lung
[33] = tested on: NCI/ADR-RES ovarian
[34] = tested on: OVCAR-3 ovarian
[35] = tested on: OVCAR-4 ovarian
[36] = tested on: OVCAR-5 ovarian
[37] = tested on: OVCAR-8 ovarian
[38] = tested on: PC-3 prostate
[39] = tested on: RPMI-8226 leukemia
[40] = tested on: RXF 393 renal
[41] = tested on: SF-268 CNS
[42] = tested on: SF-295 CNS
[43] = tested on: SF-539 CNS
[44] = tested on: SK-MEL-2 melanoma
[45] = tested on: SK-MEL-28 melanoma
[46] = tested on: SK-MEL-5 melanoma
[47] = tested on: SK-OV-3 ovarian
[48] = tested on: SN12C renal
[49] = tested on: SNB-19 CNS
[50] = tested on: SNB-75 CNS
[51] = tested on: SR leukemia
[52] = tested on: SW-620 colon
[53] = tested on: T-47D breast
[54] = tested on: TK-10 renal
[55] = tested on: U251 CNS
[56] = tested on: UACC-257 melanoma
[57] = tested on: UACC-62 melanoma
[58] = tested on: UO-31 renal
[59] = tested on: MDA-N

Structure (SMILES): O=C1c2ccccc2-c2c1c1ccccc1c(=O)n2CCCNCCCCNCCCN1C(=O)c2ccccc2C2C(=O)c3ccccc3C21 (stereo unspecified)
- GI50 [1]: 78.6 nM
- TGI [1]: 782 nM
- GI50 [2]: 628 nM
- TGI [2]: 2210 nM
- GI50 [3]: 45.1 nM
- TGI [3]: 881 nM
- GI50 [4]: 57.3 nM
- TGI [4]: 762 nM
- GI50 [5]: 854 nM
- TGI [5]: 2040 nM
- GI50 [6]: 447 nM
- TGI [6]: 1130 nM
- GI50 [7]: 29.1 nM
- TGI [7]: 766 nM
- GI50 [8]: 681 nM
- TGI [8]: 1610 nM
- GI50 [9]: 127 nM
- TGI [9]: 837 nM
- GI50 [10]: 358 nM
- TGI [10]: 1050 nM
- GI50 [11]: 194 nM
- TGI [11]: 908 nM
- GI50 [12]: 23.1 nM
- TGI [12]: 421 nM
- GI50 [13]: 229 nM
- TGI [13]: 853 nM
- GI50 [14]: 203 nM
- TGI [14]: 1170 nM
- GI50 [15]: 273 nM
- TGI [15]: 1080 nM
- GI50 [16]: 8.29 nM
- TGI [16]: 42.8 nM
- GI50 [17]: 739 nM
- TGI [17]: 2080 nM
- GI50 [18]: 76.6 nM
- TGI [18]: 8750 nM
- GI50 [19]: 988 nM
- TGI [19]: 10700 nM
- GI50 [20]: 182 nM
- TGI [20]: 727 nM
- GI50 [21]: 270 nM
- TGI [21]: 1410 nM
- GI50 [22]: 27.8 nM
- TGI [22]: 253 nM
- GI50 [23]: 643 nM
- TGI [23]: 1530 nM
- GI50 [24]: 5270 nM
- TGI [24]: 35000 nM
- GI50 [25]: 36.1 nM
- TGI [25]: 1900 nM
- GI50 [26]: 284 nM
- TGI [26]: 1040 nM
- GI50 [27]: 805 nM
- TGI [27]: 2830 nM
- GI50 [28]: < 5 nM
- TGI [28]: 711 nM
- GI50 [29]: 575 nM
- TGI [29]: 2190 nM
- GI50 [30]: 319 nM
- TGI [30]: 999 nM
- GI50 [31]: 42.6 nM
- TGI [31]: 2390 nM
- GI50 [32]: 9380 nM
- TGI [32]: 50000 nM
- GI50 [33]: 859 nM
- TGI [33]: 2630 nM
- GI50 [34]: 212 nM
- TGI [34]: 870 nM
- GI50 [35]: 779 nM
- TGI [35]: 10300 nM
- GI50 [36]: 570 nM
- TGI [36]: 1190 nM
- GI50 [37]: 24.1 nM
- TGI [37]: 986 nM
- GI50 [38]: 512 nM
- TGI [38]: 1240 nM
- GI50 [39]: 8.58 nM
- TGI [39]: 237 nM
- GI50 [40]: 30.5 nM
- TGI [40]: 823 nM
- GI50 [41]: 238 nM
- TGI [41]: 1420 nM
- GI50 [42]: 64.7 nM
- TGI [42]: 872 nM
- GI50 [43]: 91.9 nM
- TGI [43]: 759 nM
- GI50 [44]: 1040 nM
- TGI [44]: 3820 nM
- GI50 [45]: 1190 nM
- TGI [45]: 6760 nM
- GI50 [46]: 939 nM
- TGI [46]: 3930 nM
- GI50 [47]: 1020 nM
- TGI [47]: 2810 nM
- GI50 [48]: < 5 nM
- TGI [48]: 818 nM
- GI50 [49]: 570 nM
- TGI [49]: 1930 nM
- GI50 [50]: 726 nM
- TGI [50]: 1460 nM
- GI50 [51]: < 5 nM
- TGI [51]: 5.59 nM
- GI50 [52]: 126 nM
- TGI [52]: 1210 nM
- GI50 [53]: 643 nM
- TGI [53]: 1770 nM
- GI50 [54]: 614 nM
- TGI [54]: 1450 nM
- GI50 [55]: 75.6 nM
- TGI [55]: 767 nM
- GI50 [56]: 3860 nM
- TGI [56]: 11700 nM
- GI50 [57]: 666 nM
- TGI [57]: 3250 nM
- GI50 [58]: 691 nM
- TGI [58]: 1850 nM

Structure (SMILES): CC(=O)OC12c3ccccc3-c3ccccc3C1C1C(=O)OC(=O)C12 (stereo unspecified)
- TGI [1]: > 10000 nM
- TGI [2]: > 10000 nM
- TGI [4]: > 10000 nM
- TGI [6]: > 10000 nM
- TGI [7]: > 10000 nM
- TGI [8]: > 10000 nM
- TGI [9]: > 10000 nM
- TGI [10]: > 10000 nM
- TGI [11]: > 10000 nM
- TGI [13]: > 10000 nM
- TGI [14]: > 10000 nM
- TGI [15]: > 10000 nM
- TGI [16]: > 10000 nM
- TGI [17]: > 10000 nM
- TGI [18]: > 10000 nM
- TGI [19]: > 10000 nM
- TGI [20]: > 10000 nM
- TGI [21]: > 10000 nM
- TGI [22]: > 10000 nM
- TGI [23]: > 10000 nM
- TGI [24]: > 10000 nM
- TGI [25]: > 10000 nM
- TGI [26]: > 10000 nM
- TGI [27]: > 10000 nM
- TGI [59]: > 10000 nM
- TGI [28]: > 10000 nM
- TGI [29]: > 10000 nM
- TGI [30]: > 10000 nM
- TGI [31]: > 10000 nM
- TGI [32]: > 10000 nM
- TGI [33]: > 10000 nM
- TGI [34]: > 10000 nM
- TGI [35]: > 10000 nM
- TGI [36]: > 10000 nM
- TGI [37]: > 10000 nM
- TGI [38]: > 10000 nM
- TGI [39]: > 10000 nM
- TGI [40]: > 10000 nM
- TGI [41]: > 10000 nM
- TGI [42]: > 10000 nM
- TGI [43]: > 10000 nM
- TGI [44]: > 10000 nM
- TGI [45]: > 10000 nM
- TGI [46]: > 10000 nM
- TGI [47]: > 10000 nM
- TGI [48]: > 10000 nM
- TGI [49]: > 10000 nM
- TGI [50]: > 10000 nM
- TGI [51]: > 10000 nM
- TGI [52]: > 10000 nM
- TGI [53]: > 10000 nM
- TGI [54]: > 10000 nM
- TGI [55]: > 10000 nM
- TGI [56]: > 10000 nM
- TGI [58]: > 10000 nM
